Values after ≈ are worked out from the molar mass of the structure shown.
Columns and labels:
Assay in all cases: MIC, agar plate dilution method
A. calcoaceticus No. 14 = type: cell-based; settings: Acinetobacter calcoaceticus; for MIC: A. calcoaceticus No. 14, 10^6 CFU/ml, Sensitivity Disk Agar, read-out: Minimum Inhibitory Concentration
Protocol: (§1) The minimum inhibitory concentrations (MIC: μg/ml) of the compounds of the present invention against various microorganisms were measured by an agar plate dilution method (inoculum size: 10^6 CFU/ml) by using Sensitivity Disk Agar (Nissui) in comparison with Cefotaxime and Ceftazidime as comparative compounds.

C. freundii No. 7 = type: cell-based; settings: Citrobacter freundii; C. freundii No. 7; 10^6 CFU/ml; Sensitivity Disk Agar; read-out: Minimum Inhibitory Concentration
Protocol: as §1

E. cloaceae Nek 39 = type: cell-based; settings: E. cloaceae Nek 39; 10^6 CFU/ml; Sensitivity Disk Agar; read-out: Minimum Inhibitory Concentration
Protocol: as §1

E. coli C/Rms149 = type: cell-based; settings: Escherichia coli, read-out: Minimum Inhibitory Concentration
Protocol: as §1

E. coli CSH2 = type: cell-based; settings: Escherichia coli, 10^6 CFU/ml, Sensitivity Disk Agar, read-out: Minimum Inhibitory Concentration
Protocol: as §1

E. coli CSH = type: cell-based; settings: Escherichia coli, read-out: Minimum Inhibitory Concentration
Protocol: as §1

E. coli ML1410/Rte16 = type: cell-based; settings: Escherichia coli, ML1410/RTE16, read-out: Minimum Inhibitory Concentration
Protocol: as §1

E. coli NIHJJC-2 = type: cell-based; settings: Escherichia coli, NIHJJC2; E. coli NIHJJC-2; 10^6 CFU/ml; Sensitivity Disk Agar; read-out: Minimum Inhibitory Concentration
Protocol: as §1

E. coli W3630/Rms212 = type: cell-based; settings: Escherichia coli, W3630/RMS212, read-out: Minimum Inhibitory Concentration
Protocol: as §1

E. coli W3630/Rms213 = type: cell-based; settings: Escherichia coli, W3630/RMS213, read-out: Minimum Inhibitory Concentration
Protocol: as §1

K. pneumoniae No. 42 = type: cell-based; settings: Klebsiella pneumoniae; K. pneumoniae No. 42; 10^6 CFU/ml; Sensitivity Disk Agar; read-out: Minimum Inhibitory Concentration
Protocol: as §1

P. mirabilis JY10 = type: cell-based; settings: Proteus mirabilis; P. mirabilis JY10; 10^6 CFU/ml; Sensitivity Disk Agar; read-out: Minimum Inhibitory Concentration
Protocol: as §1

P. vulgaris No. 33 = type: cell-based; settings: Proteus vulgaris; P. vulgaris No. 33; 10^6 CFU/ml; Sensitivity Disk Agar; read-out: Minimum Inhibitory Concentration
Protocol: as §1

P. vulgaris OB1043 = type: cell-based; settings: Proteus vulgaris; P. vulgaris OB1043; 10^6 CFU/ml; Sensitivity Disk Agar; read-out: Minimum Inhibitory Concentration
Protocol: as §1

S. aureus JS-1 = type: cell-based; settings: Staphylococcus aureus, JS1; S. aureus JS-1; 10^6 CFU/ml; Sensitivity Disk Agar; read-out: Minimum Inhibitory Concentration
Protocol: as §1

S. aureus NIHJJC-1 = type: cell-based; settings: Staphylococcus aureus, NIHJJC1; S. aureus NIHJJC-1; 10^6 CFU/ml; Sensitivity Disk Agar; read-out: Minimum Inhibitory Concentration
Protocol: as §1

S. marcescens No. 16-2 = type: cell-based; settings: Serratia marcescens, NO.162; S. marcescens No. 16-2; 10^6 CFU/ml; Sensitivity Disk Agar; read-out: Minimum Inhibitory Concentration
Protocol: as §1

P. aeruginosa AK109 = type: cell-based, Pseudomonas aeruginosa; settings: for MIC: Pseudomonas aeruginosa, P. aeruginosa AK109, 10^6 CFU/ml, Sensitivity Disk Agar, read-out: Minimum Inhibitory Concentration
Protocol: as §1

P. aeruginosa AKR17 = type: cell-based, Pseudomonas aeruginosa; settings: for MIC: Pseudomonas aeruginosa, P. aeruginosa AKR17, 10^6 CFU/ml, Sensitivity Disk Agar, read-out: Minimum Inhibitory Concentration
Protocol: as §1

P. cepacia 23 = type: cell-based, Pseudomonas cepacia; settings: for MIC: Burkholderia cepacia, P. cepacia 23, 10^6 CFU/ml, Sensitivity Disk Agar, read-out: Minimum Inhibitory Concentration
Protocol: as §1

P. maltophilia IID 1275 = type: cell-based, Pseudomonas maltophilia; settings: for MIC: Stenotrophomonas maltophilia, IID1275, P. maltophilia IID 1275, 10^6 CFU/ml, Sensitivity Disk Agar, read-out: Minimum Inhibitory Concentration
Protocol: as §1

## CO/N=C(\C(=O)NC1C(=O)N2C(C(=O)[O-])=C(C[N+]3(C)Cc4ccc(OC(C)=O)cc4C3)CSC12)c1csc(N)n1 (centres unmarked) [Ex. 1-F]
A. calcoaceticus No. 14
  MIC: 25 µg/mL (≈ 42.6 µM)
C. freundii No. 7
  MIC: 1.56 µg/mL (≈ 2.66 µM)
E. cloaceae Nek 39
  MIC: 0.78 µg/mL (≈ 1.33 µM)
E. coli C/Rms149
  MIC: 0.1 µg/mL (≈ 0.17 µM)
E. coli CSH2
  MIC: ≤ 0.05 µg/mL
E. coli CSH
  MIC: 0.78 µg/mL (≈ 1.33 µM)
E. coli ML1410/Rte16
  MIC: 0.1 µg/mL (≈ 0.17 µM)
E. coli NIHJJC-2
  MIC: ≤ 0.05 µg/mL
E. coli W3630/Rms212
  MIC: 0.2 µg/mL (≈ 0.341 µM)
E. coli W3630/Rms213
  MIC: 0.78 µg/mL (≈ 1.33 µM)
K. pneumoniae No. 42
  MIC: 0.2 µg/mL (≈ 0.341 µM)
P. mirabilis JY10
  MIC: 0.39 µg/mL (≈ 0.665 µM)
P. vulgaris No. 33
  MIC: 0.1 µg/mL (≈ 0.17 µM)
P. vulgaris OB1043
  MIC: 0.78 µg/mL (≈ 1.33 µM)
S. aureus JS-1
  MIC: 6.25 µg/mL (≈ 10.7 µM)
S. aureus NIHJJC-1
  MIC: 0.39 µg/mL (≈ 0.665 µM)
S. marcescens No. 16-2
  MIC: 12.5 µg/mL (≈ 21.3 µM)
P. aeruginosa AK109
  MIC: 3.12 µg/mL (≈ 5.32 µM)
P. aeruginosa AKR17
  MIC: > 25 µg/mL
P. cepacia 23
  MIC: 6.25 µg/mL (≈ 10.7 µM)
P. maltophilia IID 1275
  MIC: > 25 µg/mL

## CO/N=C(\C(=O)NC1C(=O)N2C(C(=O)[O-])=C(C[N+]3(C)Cc4ccc(O)cc4C3)CSC12)c1csc(N)n1 (centres unmarked) [Ex. 2-D, 7-[(Z)-2-(2-aminothiazol-4-yl)-2-methoxyiminoacetamido]-3-(5-hydroxy-2-methyl-2-isoindolinium)methyl-3-cephem-4-carboxylate]
A. calcoaceticus No. 14
  MIC: 25 µg/mL (≈ 45.9 µM)
C. freundii No. 7
  MIC: 1.56 µg/mL (≈ 2.86 µM)
E. cloaceae Nek 39
  MIC: 0.78 µg/mL (≈ 1.43 µM)
E. coli C/Rms149
  MIC: 0.1 µg/mL (≈ 0.184 µM)
E. coli CSH2
  MIC: ≤ 0.05 µg/mL
E. coli CSH
  MIC: 0.39 µg/mL (≈ 0.716 µM)
E. coli ML1410/Rte16
  MIC: 0.1 µg/mL (≈ 0.184 µM)
E. coli NIHJJC-2
  MIC: ≤ 0.05 µg/mL
E. coli W3630/Rms212
  MIC: 0.2 µg/mL (≈ 0.367 µM)
E. coli W3630/Rms213
  MIC: 0.78 µg/mL (≈ 1.43 µM)
K. pneumoniae No. 42
  MIC: 0.2 µg/mL (≈ 0.367 µM)
P. mirabilis JY10
  MIC: 0.39 µg/mL (≈ 0.716 µM)
P. vulgaris No. 33
  MIC: 0.1 µg/mL (≈ 0.184 µM)
P. vulgaris OB1043
  MIC: 0.39 µg/mL (≈ 0.716 µM)
S. aureus JS-1
  MIC: 6.25 µg/mL (≈ 11.5 µM)
S. aureus NIHJJC-1
  MIC: 0.39 µg/mL (≈ 0.716 µM)
S. marcescens No. 16-2
  MIC: 6.25 µg/mL (≈ 11.5 µM)
P. aeruginosa AK109
  MIC: 3.12 µg/mL (≈ 5.73 µM)
P. aeruginosa AKR17
  MIC: > 25 µg/mL
P. cepacia 23
  MIC: 6.25 µg/mL (≈ 11.5 µM)
P. maltophilia IID 1275
  MIC: > 25 µg/mL

## C[N+]1(CC2=C(C(=O)[O-])N3C(=O)C(NC(=O)C(=NOC4(C(=O)O)CCC4)c4csc(N)n4)C3SC2)Cc2cc(O)c(O)cc2C1 (centres unmarked) [Ex. 11-F, 7-[(Z)-2-(2-aminothiazol-4-yl)-2-(1-carboxy-1-cyclobutoxyimino)acetamido]-3-(5,6-dihydroxy-2-methyl-2-isoindolinium)methyl-3-cephem-4-carboxylate]
A. calcoaceticus No. 14
  antibacterial activity relative to the compound of Reference Example: at least 32 times
  MIC: 0.1 µg/mL (≈ 0.155 µM)
C. freundii No. 7
  MIC: 0.78 µg/mL (≈ 1.21 µM)
E. cloaceae Nek 39
  MIC: ≤ 0.05 µg/mL
E. coli C/Rms149
  MIC: ≤ 0.05 µg/mL
E. coli CSH2
  MIC: ≤ 0.05 µg/mL
E. coli CSH
  MIC: ≤ 0.05 µg/mL
E. coli ML1410/Rte16
  MIC: ≤ 0.05 µg/mL
E. coli NIHJJC-2
  MIC: ≤ 0.05 µg/mL
E. coli W3630/Rms212
  MIC: ≤ 0.05 µg/mL
E. coli W3630/Rms213
  MIC: ≤ 0.05 µg/mL
K. pneumoniae No. 42
  MIC: ≤ 0.05 µg/mL
P. mirabilis JY10
  MIC: ≤ 0.05 µg/mL
P. vulgaris No. 33
  MIC: ≤ 0.05 µg/mL
P. vulgaris OB1043
  MIC: ≤ 0.05 µg/mL
S. aureus JS-1
  MIC: > 25 µg/mL
S. aureus NIHJJC-1
  MIC: 25 µg/mL (≈ 38.8 µM)
S. marcescens No. 16-2
  MIC: 0.2 µg/mL (≈ 0.31 µM)
P. aeruginosa AK109; Pseudomonas aeruginosa AK109
  antibacterial activity relative to the compound of Reference Example: at least 16 times
P. aeruginosa AK109
  MIC: ≤ 0.05 µg/mL
P. aeruginosa AKR17; Pseudomonas aeruginosa AKR-17, resistant to all cephalosporins including Ceftazidime
  antibacterial activity relative to the compound of Reference Example: at least 32 times
P. aeruginosa AKR17
  MIC: 0.1 µg/mL (≈ 0.155 µM)
P. cepacia 23
  MIC: ≤ 0.05 µg/mL
P. cepacia 23; Pseudomonas cepacia 23
  antibacterial activity relative to the compound of Reference Example: at least 32 times
P. maltophilia IID 1275; Pseudomonas maltophilia resistant to all cephalosporins
  antibacterial activity relative to the compound of Reference Example: at least twice as strong
P. maltophilia IID 1275
  MIC: 1.56 µg/mL (≈ 2.42 µM)

— US4677100A, “Cephalosporin derivatives” (Banyu Pharmaceutical Co., Ltd., priority 1984, dated 1987)
